What all share (assay): NCI tumour cell line growth inhibition, 48 h
Test [1] concerns DMS 114 small cell lung.
In test [2] the test system is NCI-H23 lung.
Test [3] has as its system KM20L2 colon.
Test [4] relates to UO-31 renal.
For test [5], the system named is DLD-1 colon.
The subject of test [6] is OVCAR-8 ovarian.
Test [7] concerns XF 498 CNS.
The subject of test [8] is HS 578T breast.
The subject of test [9] is T-47D breast.
In test [10] the test system is NCI/ADR-RES ovarian.

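Five concentrations, 48 hours, 96-well plates. GI50: concentration for 50% inhibition of growth. TGI: concentration producing complete growth inhibition.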

`CC1=C(C(=O)Nc2cc(=O)n(C)c(=O)n2C)C(c2ccc([N+](=O)[O-])cc2)C(C(=O)Nc2cc(=O)n(C)c(=O)n2C)=C(C)N1`: the TGI in [1], in [2], in [3], in test [4], in [5] and in test [6] was greater than 100 µM each time. In addition, the TGI in test [7] is greater than 100 µM.
Consider `COc1cc(O)c2c(c1)C(=O)C=C(Cl)C2=O`, for which the TGI in [1], in [2], in [3], in test [4], in test [5] and in test [6] was greater than 100 µM in each case. In [7], this compound registered a TGI greater than 100 µM.
As for `CCOC(=O)C(=O)Nc1ccc(Cl)cc1C`, the TGI in test [1], in test [2], in [3], in [4], in test [5] and in [6] was greater than 100 µM each time. In addition, the TGI in test [7] is greater than 100 µM.
As to `CN(CCc1ccccn1)c1nc(=[N+](C)C)ss1`, the TGI in test [1], in test [2], in [3], in [4], in [5] and in test [6] was greater than 100 µM each time. This compound displayed a TGI in [7] greater than 100 µM.
In the case of `NCCN.NCCN.O=C[O-].O=C[O-].[Co+3].[O-][Cl+3]([O-])([O-])[O-]`, the GI50 in [1], in [2], in test [3], in [4], in test [5] and in test [6] was greater than 100 µM each time. The TGI in test [1], in test [2], in [3], in test [4], in test [5] and in test [6] was greater than 100 µM each time.
As to `Cc1ccccc1C(=O)Oc1ccc(O)cc1`, the TGI in test [2], in test [3], in [4], in test [5] and in test [6] was greater than 100 µM throughout.
Take `O=C(Cc1nc2ccccc2s1)C(=O)Nc1cccc(Cl)c1`: the TGI in [1], in [2], in [3], in [4], in test [5] and in test [6] was greater than 100 µM each time. The compound further registered a TGI in [7] greater than 100 µM.
As to `COC(=O)CCC(=O)Nc1cc(Cl)ccc1Cl`, the TGI in [1], in test [2], in test [3], in test [4], in [5] and in test [6] was greater than 100 µM throughout. In [7], this compound displayed a TGI greater than 100 µM.
Take `CC(C)C1CC2C(=O)N(c3ccccc3)C(=O)C2c2[nH]c3ccccc3c21` (configuration not stated): the TGI was greater than 100 µM in test [1]; 84 µM in [2]; greater than 100 µM in test [3]; 80.4 µM in test [4]; greater than 100 µM in test [5]; 40.1 µM in test [6]. In test [7], this compound displayed a TGI of 54.9 µM.
Consider `COc1ccc(C[C@@H]2NC[C@@H](O)[C@@H]2OC(C)=O)cc1`, for which the TGI is 0.169 µM in test [8]; greater than 100 µM in [1]; greater than 100 µM in test [3]; 13.8 µM in test [5]; 0.112 µM in test [6]; 0.193 µM in test [9]. Moreover, the GI50 was 2.76 µM in test [2], 44.6 µM in test [4] and 3.48 µM in [6].
`O=C(O)/C(Cl)=C(\Cl)C(=O)NC1C2CC3CC(C2)CC1C3` (configuration not stated): the TGI in [1], in test [2], in [3], in test [4], in test [5] and in test [6] was greater than 100 µM in each case. The same compound had a TGI in test [7] greater than 100 µM.
On to `COc1ccc(C(=O)C(c2ccc(OC)cc2)C2OC(=O)C(Cl)=C2Cl)cc1` (configuration not stated), for which the TGI in [1], in test [2], in [4], in test [5], in test [6] and in test [7] was greater than 100 µM in each case.
Turning to `COc1ccc(NC(=O)CC/C(CC(=O)C(C)(C)C)=N\NC(=O)C(N)=O)cc1`, the TGI in test [1], in test [2], in [3], in test [4], in test [5] and in test [6] was greater than 100 µM each time.
Consider `CN(CC#N)C1CCCC[C@H]1O` (some centres not stated), for which the TGI in test [1], in test [2], in test [3], in [4], in test [5] and in [6] was greater than 100 µM in each case. The TGI in test [7] was greater than 100 µM.
For the compound `CN(/N=C/c1cccc2cccnc12)c1ccc([N+](=O)[O-])cc1`, the TGI in test [1], in test [2], in [3], in [5], in test [6] and in test [7] was greater than 100 µM each time.
As to `CN1C(c2ccccc2)CS(=O)(=O)CS1(=O)=O` (configuration not stated), the TGI in test [1], in test [2], in [3], in [4], in test [5] and in [6] was greater than 100 µM in each case. Also, in test [7], the TGI was greater than 100 µM.
For `Cc1ccc(C2NC(=O)c3ccccc3N2)s1` (configuration not stated), the TGI is greater than 100 µM in test [1]; 58.2 µM in test [2]; 39.3 µM in test [3]; greater than 100 µM in test [4]; greater than 100 µM in test [5]; 54.2 µM in test [6]. In test [7], this compound registered a TGI of 19 µM.
As for `C#CCN(N=O)C(=O)NC(CCCNC(=O)OCc1ccccc1)C(=O)OCc1ccccc1` (configuration not stated), the TGI in [1], in test [2], in test [3], in test [4], in [5] and in test [6] was greater than 100 µM throughout. The compound further had a TGI in [7] of 60.1 µM.
For `CC(=O)OC1CC2Oc3ccc(C)cc3C(C)(O2)C1=O` (configuration not stated), the TGI in test [1], in [2], in test [4], in [5], in [6] and in [7] was greater than 100 µM throughout.
Regarding `CC(=O)[O-].[Mn+3].[O-]c1ccccc1C=NCCN=Cc1ccccc1[O-]`, the GI50 in test [2] is 58.9 µM; in test [3], 56.2 µM; in [4], greater than 100 µM; in test [5], 56.5 µM; in [6], greater than 100 µM. In addition, the TGI in test [2], in test [3], in test [4], in test [5] and in test [6] was greater than 100 µM each time.
As to `COc1ccc(N/N=C(\CCN(C)C)c2ccccc2)cc1`, the TGI in test [1] came to 27.6 µM; in test [2], 19.7 µM; in [3] it was 1.71 µM; in [4], 3.99 µM; in test [5], 11.9 µM; in test [6], 27.2 µM.
In the case of `CN(C)CCNC(=O)c1cccc2c(Nc3ccc(S(N)(=O)=O)cc3)c3ccccc3nc12`, the TGI in [1] worked out at 2.3 µM; in test [2] it was 5.39 µM; in [3] it was 13.3 µM; in [4] it was 7.44 µM; in test [6] it was 3.73 µM; in test [7], 1.81 µM.
Take `NC(=O)c1coc(C2OC(CO)C(O)C2O)n1` (configuration not stated): the TGI in [1], in test [2], in test [3] and in [4] was greater than 100 µM throughout.
`O=c1cc(-c2ccccc2)oc2cc(O)cc(O)c12`: the TGI in test [1] turned out to be 58.2 µM; in test [2], 62.8 µM; in test [3] it was 53.1 µM; in [4], 43.5 µM; in test [7] it was 44.1 µM.
Take `C[C@@H](CN1CC(=O)NC(=O)C1)N1CC(=O)NC(=O)C1`: the TGI in [8] is 1810 µM; in [1] it was 441 µM; in [2], 791 µM; in [3] it was 1290 µM; in [4], 1060 µM; in test [5] it was 1090 µM. The TGI in test [6] was 747 µM; in test [7], 201 µM; in test [10], 987 µM; in test [9] it was 1020 µM.
As for `COc1ccc(Cc2cc3c(cc2OCC(=O)O)OCO3)cc1`, the TGI in test [1], in test [2], in test [3], in test [4], in [5] and in [6] was greater than 100 µM in each case.
Turning to `O=C1c2ccccc2NC1(c1ccccc1)c1c(-c2ccccc2)[nH]c2ccccc12` (configuration not stated), the TGI in test [1], in [2], in test [3], in test [4], in [5] and in [6] was greater than 100 µM throughout. This compound also had a TGI in test [7] of 99 µM.
Regarding `CN(C)CCSc1cccc(-c2cc(-c3cccc(SCCN(C)C)c3)nc(SCCN(C)C)n2)c1`, the TGI in test [2] worked out at 15.3 µM; in test [3], 3.46 µM; in test [4] it was 27.9 µM; in [5] it was 25.9 µM; in test [6] it was 2.78 µM.
In the case of `O=C(Nc1cccc(Cc2cccc(NC(=O)c3ccccc3)c2)c1)c1ccccc1`, the TGI in test [1] was greater than 100 µM; in [2], greater than 100 µM; in [3], greater than 100 µM; in test [4] it was 66.3 µM; in test [5], greater than 100 µM; in test [6], greater than 100 µM.
Take `Cc1nc(-c2ccccc2)cc2c1c(=O)oc1ccccc12`: the TGI in [1], in test [2], in test [3], in test [4], in [5] and in [6] was greater than 100 µM throughout.
As to `COc1cc2c(cc1OC)C(OC)N(C)c1c-2ccc2cc3c(cc12)OCO3` (configuration not stated), the TGI in test [1] is 12.3 µM; in [2], 6.49 µM; in [3], 6.5 µM; in [4] it was 74.7 µM; in test [5], 61.2 µM; in test [6] it was 21.6 µM. Moreover, the TGI in test [7] was 2.95 µM; in test [10], greater than 55.3 µM.
Regarding `CC(=O)O[C@H]1CCC2[C@@H]3CCC4=C(O)C(=O)C(C#N)C[C@]4(C)C3CC[C@@]21C` (some centres not stated), the TGI in test [1] is 81.1 µM; in [2] it was greater than 100 µM; in [3], greater than 100 µM; in [4], greater than 100 µM; in test [5] it was greater than 100 µM; in test [6], greater than 100 µM. This compound also gave a TGI in test [7] greater than 100 µM.
`O=C(c1ccccc1)c1oc2ccc(Br)cc2c1-c1cnn(-c2ccccc2)c1`: the TGI in test [1], in test [2], in test [3], in [4], in test [5] and in [7] was greater than 100 µM throughout.
Turning to `CC1(C)OB(O)OC1(C)C`, the TGI in [1], in test [2], in [3], in test [4], in [5] and in test [6] was greater than 100 µM throughout. This compound gave a TGI in test [7] greater than 100 µM.
`O=S(=O)(SCc1ccccc1)C(c1ccccc1)c1ccccc1`: the TGI in [1] was 48.1 µM; in test [2] it was 77.6 µM; in test [3], 40.5 µM; in test [4], greater than 100 µM; in [5], 55.4 µM; in [6] it was 43.1 µM. Besides, the TGI in test [7] is greater than 100 µM.
With `CC#C/C(=N\OC[C@H]1COCCN1)c1ccc2ncnc(Nc3ccc(OCc4cccc(F)c4)c(Cl)c3)c2c1`, the GI50 in test [8] is 1.89 µM; in [2] it was 1.74 µM; in test [4] it was 1.13 µM; in test [6] it was 1.76 µM; in [10], 1.27 µM; in [9] it was 0.0582 µM. The TGI in test [8] turned out to be 4.46 µM; in test [2], 3.41 µM; in test [4] it was 2.41 µM; in [6] it was 4.27 µM; in test [10], 2.87 µM; in [9] it was 4.47 µM.

For the origin of these results see PubChem BioAssay (NCI).
